# Measured values taken from publication PMC12155096 (International Journal of Molecular Sciences, 2025).
# Counter-ions that a name gives are not always drawn. Like-named read-outs stand apart in the source and are kept apart here.
# Assays:
# human CYP2C9 [1] = target: T1, human CYP2C9 (Homo sapiens, UniProt P11712); experiment: biochemical
# human CYP2D6 [2] = target: T2, human CYP2D6 (Homo sapiens, UniProt P10635); experiment: biochemical
# human CYP2C19 [3] = target: T3, human CYP2C19 (Homo sapiens, UniProt P33261); experiment: biochemical; settings: for IC50: CYP2C19 IC50 (half-maximal inhibitory concentration); for AC50: CYP2C19 AC50 (half-maximal activity concentration)
# human CYP1A2 = target: T4, human CYP1A2 (Homo sapiens, UniProt P05177); experiment: biochemical
# T4 sequence (P05177 1-516): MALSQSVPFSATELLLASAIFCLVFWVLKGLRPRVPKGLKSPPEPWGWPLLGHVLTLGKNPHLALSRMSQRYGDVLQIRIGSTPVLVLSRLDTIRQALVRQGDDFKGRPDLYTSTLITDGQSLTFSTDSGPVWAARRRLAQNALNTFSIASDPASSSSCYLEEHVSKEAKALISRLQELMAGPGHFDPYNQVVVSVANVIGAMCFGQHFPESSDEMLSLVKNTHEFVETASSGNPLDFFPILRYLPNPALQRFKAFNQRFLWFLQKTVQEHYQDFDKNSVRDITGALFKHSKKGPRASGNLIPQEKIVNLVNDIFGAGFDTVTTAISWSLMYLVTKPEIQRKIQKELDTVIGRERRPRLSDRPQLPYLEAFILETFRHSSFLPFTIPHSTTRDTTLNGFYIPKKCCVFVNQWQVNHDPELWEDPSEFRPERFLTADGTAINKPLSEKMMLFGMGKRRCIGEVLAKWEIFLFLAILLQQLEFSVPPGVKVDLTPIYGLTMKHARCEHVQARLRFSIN
# human CYP2D6 [4] = target: T2, human CYP2D6; settings: human
# human CYP2C19 [5] = target: T3, human CYP2C19; settings: human
# human CYP2C9 [6] = target: T1, human CYP2C9; settings: human
# [7] = CYP2C9 IC50 (half-maximal inhibitory concentration)
# [8] = CYP2D6 IC50 (half-maximal inhibitory concentration)
# [9] = CYP2D6 AC50 (half-maximal activity concentration)
# [10] = CYP1A2 AC50 (half-maximal activity concentration)
# [11] = CYP2C9 AC50 (half-maximal activity concentration)
# T3 sequence (P33261 whole entry): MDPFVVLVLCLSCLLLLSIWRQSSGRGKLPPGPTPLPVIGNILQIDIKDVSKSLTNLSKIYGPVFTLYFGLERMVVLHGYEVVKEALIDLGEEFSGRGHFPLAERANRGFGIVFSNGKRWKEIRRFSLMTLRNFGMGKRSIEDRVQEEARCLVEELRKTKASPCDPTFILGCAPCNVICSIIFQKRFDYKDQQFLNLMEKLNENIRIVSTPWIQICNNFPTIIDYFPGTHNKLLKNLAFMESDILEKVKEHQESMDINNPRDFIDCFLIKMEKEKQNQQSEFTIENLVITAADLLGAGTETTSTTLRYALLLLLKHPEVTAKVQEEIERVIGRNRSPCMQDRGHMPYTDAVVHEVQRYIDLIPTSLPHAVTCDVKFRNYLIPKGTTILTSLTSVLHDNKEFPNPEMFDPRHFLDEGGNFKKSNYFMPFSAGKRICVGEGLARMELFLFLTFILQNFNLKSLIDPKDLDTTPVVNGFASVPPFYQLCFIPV
# T1 sequence (P11712 whole entry): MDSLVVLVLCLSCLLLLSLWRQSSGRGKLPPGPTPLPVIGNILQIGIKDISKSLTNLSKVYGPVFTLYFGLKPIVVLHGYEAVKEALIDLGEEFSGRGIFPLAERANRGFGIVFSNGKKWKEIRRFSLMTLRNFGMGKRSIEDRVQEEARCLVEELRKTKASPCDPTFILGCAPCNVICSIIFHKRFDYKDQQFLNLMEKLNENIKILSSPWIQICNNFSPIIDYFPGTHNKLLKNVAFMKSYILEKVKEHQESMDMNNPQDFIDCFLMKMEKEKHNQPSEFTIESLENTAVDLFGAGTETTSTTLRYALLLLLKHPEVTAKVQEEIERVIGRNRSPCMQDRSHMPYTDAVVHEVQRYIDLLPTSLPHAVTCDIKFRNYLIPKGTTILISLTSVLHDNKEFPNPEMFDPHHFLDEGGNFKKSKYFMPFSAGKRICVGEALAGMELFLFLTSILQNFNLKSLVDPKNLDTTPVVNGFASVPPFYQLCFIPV
# T2 sequence (P10635 whole entry): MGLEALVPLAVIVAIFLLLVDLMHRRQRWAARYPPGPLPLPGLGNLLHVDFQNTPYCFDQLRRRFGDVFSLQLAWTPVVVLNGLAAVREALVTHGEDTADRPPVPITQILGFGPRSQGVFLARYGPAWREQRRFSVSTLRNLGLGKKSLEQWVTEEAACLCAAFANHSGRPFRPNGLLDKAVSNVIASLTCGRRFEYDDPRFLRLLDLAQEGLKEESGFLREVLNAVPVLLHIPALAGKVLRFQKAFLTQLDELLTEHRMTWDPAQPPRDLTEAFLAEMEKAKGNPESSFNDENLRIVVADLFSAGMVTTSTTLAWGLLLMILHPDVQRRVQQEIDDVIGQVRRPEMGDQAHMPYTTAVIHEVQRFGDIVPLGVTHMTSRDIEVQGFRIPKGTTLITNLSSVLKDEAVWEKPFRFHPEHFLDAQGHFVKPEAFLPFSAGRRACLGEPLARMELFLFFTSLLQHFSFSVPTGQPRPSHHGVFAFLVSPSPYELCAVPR
structure (smiles),measurement,setting,value
Cc1c(O)cccc1C(=O)N[C@@H](CSc1ccccc1)[C@H](O)CN1C[C@H]2CCCC[C@H]2C[C@H]1C(=O)NC(C)(C)C [Nelfinavir mesylate],IC50,human CYP2C9 [1]; [7],19.1 µM
same,IC50,human CYP2D6 [2]; [8],14.4 µM
same,IC50,human CYP2C19 [3],42.1 µM
O=C(OCC1(COC(=O)c2cccnc2)CCCC(COC(=O)c2cccnc2)(COC(=O)c2cccnc2)C1O)c1cccnc1 [Nicomolol],IC50,human CYP2C9 [1]; [7],8.67 µM
same,IC50,human CYP2D6 [2]; [8],22.4 µM
same,IC50,human CYP2C19 [3],23.3 µM
COc1ccc2c(c1OC)C(=O)O[C@@H]2[C@H]1c2c(cc3c(c2OC)OCO3)CCN1C [Noscapine],IC50,human CYP2C9 [1]; [7],0.84 µM
same,IC50,human CYP2D6 [2]; [8],12.9 µM
same,IC50,human CYP2C19 [3],1.38 µM
CC(CCc1ccccc1)NC(C)C(O)c1ccc(O)cc1 (centres unmarked) [Nylidrin],AC50,human CYP2D6 [2]; [9],0.49 µM
same,IC50,human CYP2D6 [2]; [8],0.49 µM
same,AC50,human CYP1A2; [10],13.6 µM
same,IC50,human CYP1A2; CYP1A2 IC50 (half-maximal inhibitory concentration),13.6 µM
same,AC50,human CYP2C19 [3],9.42 µM
same,IC50,human CYP2C19 [3],9.42 µM
CN1CCCN=C1COC(=O)C(O)(c1ccccc1)C1CCCCC1 (centres unmarked) [Oxyphencyclimine hydrochloride],IC50,human CYP2D6 [2],0.92 µM
same,IC50,human CYP1A2,14.6 µM
CC[N+](C)(CC)CCOC(=O)C(O)(c1ccccc1)C1CCCCC1 (centres unmarked) [Oxyphenonium bromide],IC50,human CYP2D6 [2]; [8],0.87 µM
CC(N/C(=N\C#N)Nc1ccncc1)C(C)(C)C (centres unmarked) [Pinacidil monohydrate],IC50,human CYP2C9 [1]; [7],13.9 µM
same,CYP2D6 Efficacy (in parenthesis),human CYP2D6 [4],25.27 ± 7.04 (-50 ± 9) %
same,IC50,human CYP2D6 [2]; [8],25.3 µM
same,CYP2C19 Efficacy (in parenthesis),human CYP2C19 [5],2.06 ± 0.47 (-116 ± 6) %
same,CYP2C9 Efficacy (in parenthesis),human CYP2C9 [6],13.86 ± 1.59 (-102 ± 3) %
same,IC50,human CYP2C19 [3],2.06 µM
CC1CCCC(C)N1CCCC(O)(c1ccccc1)c1ccccn1 (centres unmarked) [Pirmenol],IC50,human CYP2D6 [2]; [8],0.92 µM
CC[C@@H]([C@H](C)O)n1ncn(-c2ccc(N3CCN(c4ccc(OC[C@@H]5CO[C@@](Cn6cncn6)(c6ccc(F)cc6F)C5)cc4)CC3)cc2)c1=O [Posaconazole],IC50,human CYP2D6 [2],11.3 ± 3.6 µM
CC(C)[N+](C)(CCOC(=O)C1c2ccccc2Oc2ccccc21)C(C)C [Propantheline bromide],AC50,human CYP2D6 [2]; [9],0.19 µM
same,IC50,human CYP2D6 [2]; [8],0.09 µM
Cn1cc(C(=O)[C@@H]2CCc3nc[nH]c3C2)c2ccccc21 [Ramosetron hydrochloride],AC50,human CYP2C9 [1],10.7 ± 4.21 µM
same,AC50,human CYP2D6 [2],17.4 µM
same,AC50,human CYP1A2,17.4 µM
C=C(C)[C@H]1Cc2c(ccc3c2O[C@@H]2COc4cc(OC)c(OC)cc4[C@@H]2C3=O)O1 [Rotenone],IC50,human CYP2C9 [1],9.2 µM
same,IC50,human CYP2D6 [2],37.7 µM
same,IC50,human CYP2C19 [3],1.04 µM
CCCc1nn(C)c2c(=O)[nH]c(-c3cc(S(=O)(=O)N4CCN(C)CC4)ccc3OCC)nc12 [Sildenafil citrate],IC50,human CYP2C9 [1]; [7],20.6 µM
same,IC50,human CYP2D6 [2]; [8],31.7 µM
same,IC50,human CYP2C19 [3],30.4 µM
CC[N+](CC)(CC)CCOc1ccc(/C=C/c2ccccc2)cc1 [Stilonium iodide],AC50,human CYP2D6 [2]; [9],15.5 µM
Nc1ccc(S(=O)(=O)Nc2nccs2)cc1 [Sulfathiazole],AC50,human CYP2C9 [1]; [11],13.3 µM
same,AC50,human CYP2D6 [2]; [9],56.1 µM
same,AC50,human CYP1A2; [10],33.2 µM
CCOc1ccccc1OCCN[C@H](C)Cc1ccc(OC)c(S(N)(=O)=O)c1 [Tamsulosin hydrochloride],IC50,human CYP2D6 [2]; [8],12.8 µM
CN1CCN(CCCN2c3ccccc3Sc3ccc(S(=O)(=O)N(C)C)cc32)CC1 [Thioproperazine dimethanesulfonate],IC50,human CYP2C9 [1],17.4 µM
same,IC50,human CYP2D6 [2],15.5 µM
same,IC50,human CYP1A2,24.1 ± 9.56 µM
OC(CCN1CCCCC1)(c1ccccc1)C1CCCCC1 (centres unmarked) [Trihexyphenidyl hydrochloride],IC50,human CYP2D6 [2]; [8],0.76 µM
same,IC50,human CYP2C19 [3],17.2 µM
CC1(C)CCC(=Cc2ccc(Cl)cc2)C1(O)Cn1cncn1 (centres unmarked) [Triticonazole],IC50,human CYP2C9 [1]; [7],1.47 µM
same,CYP2D6 Efficacy (in parenthesis),human CYP2D6 [4],9.5 ± 2.8 (-97 ± 3) %
same,IC50,human CYP2D6 [2]; [8],9.5 µM
same,CYP2C19 Efficacy (in parenthesis),human CYP2C19 [5],0.34 ± 0.15 (-129 ± 16) %
same,CYP2C9 Efficacy (in parenthesis),human CYP2C9 [6],1.47 ± 0.17 (-105 ± 3) %
same,IC50,human CYP2C19 [3],0.34 µM
COc1ccccc1N1CCN(CCCNc2cc(=O)n(C)c(=O)n2C)CC1 [Urapidil hydrochloride],AC50,human CYP2D6 [2]; [9],14 µM
C=CCOC(Cn1ccnc1)c1ccc(Cl)cc1Cl (centres unmarked) [imazalil],IC50,human CYP2C9 [1]; [7],0.77 µM
same,IC50,human CYP2D6 [2]; [8],6.12 µM
same,IC50,human CYP2C19 [3],0.15 µM
"CC(CCc1ccccc1)NCC(O)c1ccc(O)c(C(N)=O)c1 (centres unmarked) [labetalol, reference compound]",IC50,human CYP2D6 [2],0.6 µM
"Clc1ccc(C(c2ccccc2Cl)C(Cl)Cl)cc1 (centres unmarked) [o,p'-DDD]",AC50,human CYP2C9 [1]; [11],16.8 µM
same,AC50,human CYP2D6 [2]; [9],31.2 µM
same,AC50,human CYP2C19 [3],1.05 µM
"CC(CN(C)C)CN1c2ccccc2CCc2ccccc21 (centres unmarked) [trimipramine, reference compound]",IC50,human CYP2D6 [2]; IC50 CYP2D6 assay,3.1 µM
